pEC50: −log10 of the molar value. Like-named read-outs stand apart in the source and are kept apart here.
How the values were obtained:
[1] = tested on: DosR regulon genes (dosR, hspX and tgs1); assay: NO and vitamin C sensitivity assays (RT-PCR); assay type: cell-based, Mycobacterium tuberculosis; details: for induction of dosR / induction of hspX / induction of tgs1: 2 h
[2] = tested on: CDC1551(hspX′:GFP) reporter; assay: microbe, parasite or virus in culture; assay type: cell-based, Mycobacterium tuberculosis; details: Mycobacterium tuberculosis, 6 days of treatment
[3] = tested on: Mtb; assay: microbe, parasite or virus in culture; assay type: cell-based; details: Mycobacterium tuberculosis; 6 days, optical density; unit given as M; read-out: growth inhibition EC50
[4] = tested on: Mtb Erdman; assay: microbe, parasite or virus in culture; details: Mycobacterium tuberculosis, 240 h, read-out: viability, INH alone
[5] = tested on: Mtb Erdman; details: 1 μM and 5 μM INH, ten days post INH treatment
[6] = read-out: EC50 of inhibition of CDC1551(hspX′:GFP) reporter (dosR-dependent GFP) fluorescence

For C[C@H]1[C@@H](O)O[C@@H]2O[C@@]3(C)CC[C@H]4[C@H](C)CC[C@@H]1[C@@]24OO3 [DHA, dihydroartemisinin, reference compound], the “reduction of magnitude of induction of transcripts in response to DETA-NONOate vs DMSO treatment” value ([1]; 80 μM pretreatment 24 h) was about 2 fold.
CN(C)CCCN1C(=O)c2cccc3c(Br)ccc(c23)C1=O [HC104A, 6-bromo-2-[3-(dimethylamino)propyl]benzo[de]isoquinoline-1,3-dione] gave a pEC50 ([2]; unit given as M, read-out: EC50 of inhibition of dosR-dependent GFP fluorescence) of 5.55 and a pEC50 [3] of under 4.10.
In the case of CCCS(=O)(=O)N1CCN(Cc2ccc3c(c2)c2ccccc2n3CC)CC1 [HC105A, 9-ethyl-3-[(4-propylsulfonylpiperazin-1-yl)methyl]carbazole; oxalic acid], the pEC50 [2, 6] was 4.90 and the pEC50 [3] was under 4.10.
With O=C(Nc1ccno1)Nc1ccc(Cl)cc1Cl [HC106A, 1-(2,4-dichlorophenyl)-3-(1,2-oxazol-5-yl)urea] the pEC50 [2, 6] was 5.16 and the pEC50 [3] was under 4.10.
In the case of NNC(=O)c1ccncc1 [INH, isoniazid, reference compound], the viability at 25 µM [4] was about 75% and the “viability, INH alone” value [5] was about 100%.
[N]=O [NO, reference compound] was tested, and the “induction of dosR” value ([1]; NO (50 μM DETA-NONOate)) was 491 fold, the “induction of hspX” value ([1]; NO (50 μM DETA-NONOate)) was 373 fold and the “induction of tgs1” value ([1]; NO (50 μM DETA-NONOate)) was 47 fold.
With O=C1O[C@H]([C@@H](O)CO)C(O)=C1O [vitamin C, reference compound] the “induction of dosR” value ([1]; 2 mM vitamin C) was 4 fold, the “induction of hspX” value ([1]; 2 mM vitamin C) was 14 fold and the “induction of tgs1” value ([1]; 2 mM vitamin C) was 52 fold.

From patent publication US11717508B2, “Compounds, compositions, and methods for inhibiting bacterial growth” (priority 2016, dated 2023)
